Target: T1, SHP-2 enzyme (Met1-Leu525) (Homo sapiens, UniProt Q06124)
T1 construct: synthetized by Origene, Met1-Leu525, cat #TP750155; purchased Origene TP750155
T1 sequence (Q06124 1-525): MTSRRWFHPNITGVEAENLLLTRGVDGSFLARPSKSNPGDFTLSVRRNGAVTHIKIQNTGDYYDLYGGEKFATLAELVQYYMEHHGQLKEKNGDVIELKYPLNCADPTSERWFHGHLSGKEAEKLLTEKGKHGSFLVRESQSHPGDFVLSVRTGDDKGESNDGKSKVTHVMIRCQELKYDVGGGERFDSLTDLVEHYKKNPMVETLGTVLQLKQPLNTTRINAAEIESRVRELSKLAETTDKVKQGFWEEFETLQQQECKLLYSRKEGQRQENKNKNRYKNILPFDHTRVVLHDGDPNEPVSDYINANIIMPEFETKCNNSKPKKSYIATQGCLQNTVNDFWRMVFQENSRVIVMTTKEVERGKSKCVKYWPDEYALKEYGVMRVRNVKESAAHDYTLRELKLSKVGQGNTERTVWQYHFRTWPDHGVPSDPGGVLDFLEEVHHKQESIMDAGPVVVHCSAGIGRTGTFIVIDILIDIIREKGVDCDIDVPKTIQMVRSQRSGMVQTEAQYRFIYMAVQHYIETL
Experiment: SHP2 inhibition enzymatic assay (DiFMUP substrate, IRS1 peptide activation)
Type: biochemical
Conditions: SHP2 wt; activated by 500 nM IRS1 peptide; 75 μM DiFMUP substrate
Procedure: SHP2 Inhibition Enzymatic Assay
Assay volume of 20 μL/well was assembled in 384 well black polystyrene low-binding microplates (Greiner), using the following buffer: 60 mM HEPES pH 7.2, 75 mM NaCl, 75 mM KCl, 1 mM EDTA pH 8, 0.05% tween-20, 5 mM DTT. The SHP-2 enzyme (synthetized by Origene, Met1-Leu525, cat #TP750155) was used at a final concentration of 0.5 nM.
Briefly, DMSO serially diluted testing compounds were transferred to the bottom of the assay plate. SHP2 was then added together with the IRS1 peptide. 30 minutes post incubation, the DiFMUP substrate was added to the reaction and incubated 30 min at room temperature. […] The fluorescence was detected by a microplate reader (Envision, PerkinElmer) according to the DiFMUP excitation and emission wavelength. The lower the fluorescence the higher the SHP2 inhibition.
The percentage inhibition is fitted against the compound dilutions with a four-parameter logistic regression. The inflection point (i.e. the concentration at which half-maximal inhibition is achieved) is the IC50.

| Compound | IC50 [nM] |
| --- | --- |
| CC(C)=Cc1ccccc1Sc1cnc2[nH]c(N3CCC(C)(N)CC3)nc2n1 [Example 75, 4-methyl-1-(5-((2-(2-methylprop-1-en-1-yl)phenyl)thio)-1H-imidazo[4,5-b]pyrazin-2-yl)piperidin-4-amine] | > 3000 |
| CC1(N)CCN(c2nc3nc(Sc4cccc5c4C(=O)CC5)cnc3[nH]2)CC1 [Example 76, 7-((2-(4-amino-4-methylpiperidin-1-yl)-1H-imidazo[4,5-b]pyrazin-5-yl)thio)-2,3-dihydro-1H-inden-1-one] | 500 to 3000 |
| CC1(N)CCN(c2nc3nc(Sc4cccc5c4COC5)cnc3[nH]2)CC1 [Example 77, 1-(5-((1,3-dihydroisobenzofuran-4-yl)thio)-1H-imidazo[4,5-b]pyrazin-2-yl)-4-methylpiperidin-4-amine] | < 500 |
| COC(=O)c1ccccc1Sc1cnc2[nH]c(N3CCC(C)(N)CC3)nc2n1 [Example 78, methyl 2-((2-(4-amino-4-methylpiperidin-1-yl)-1H-imidazo[4,5-b]pyrazin-5-yl)thio)benzoate] | 500 to 3000 |
| OCCN1CCCN(c2nc3nc(Sc4cccnc4C(F)(F)F)cnc3[nH]2)CC1 [Example 79, 2-(4-(5-((2-(trifluoromethyl)pyridin-3-yl)thio)-1H-imidazo[4,5-b]pyrazin-2-yl)-1,4-diazepan-1-yl)ethan-1-ol] | 500 to 3000 |
| CC1(N)CCN(c2nc3nc(Sc4ccncc4)cnc3[nH]2)CC1 [Example 80, 4-methyl-1-(5-(pyridin-4-ylthio)-1H-imidazo[4,5-b]pyrazin-2-yl)piperidin-4-amine] | 500 to 3000 |
| CC1(N)CCN(c2nc3nc(Sc4ccc5ccccc5c4)cnc3[nH]2)CC1 [Example 81, 4-methyl-1-(5-(naphthalen-2-ylthio)-1H-imidazo[4,5-b]pyrazin-2-yl)piperidin-4-amine] | 500 to 3000 |
| OCCN1CCC(CNc2nc3nc(Sc4cccnc4C(F)(F)F)cnc3[nH]2)CC1 [Example 82, 2-(4-(((5-((2-(trifluoromethyl)pyridin-3-yl)thio)-1H-imidazo[4,5-b]pyrazin-2-yl)amino)methyl)piperidin-1-yl)ethan-1-ol] | > 3000 |
| O=C1NCC2(CCCN(c3nc4nc(Sc5cccnc5C(F)(F)F)cnc4[nH]3)C2)O1 (stereo not shown) [Example 83, 7-(5-((2-(trifluoromethyl)pyridin-3-yl)thio)-1H-imidazo[4,5-b]pyrazin-2-yl)-1-oxa-3,7-diazaspiro[4.5]decan-2-one] | > 3000 |
| FC(F)(F)c1ncccc1Sc1cnc2[nH]c(NC3CC4(CNC4)C3)nc2n1 [Example 84, N-(2-azaspiro[3.3]heptan-6-yl)-5-((2-(trifluoromethyl)pyridin-3-yl)thio)-1H-imidazo[4,5-b]pyrazin-2-amine] | 500 to 3000 |
| NC1CCCN(c2nc3nc(Sc4cccnc4C(F)(F)F)cnc3[nH]2)CC1 (stereo not shown) [Example 85, 1-(5-((2-(trifluoromethyl)pyridin-3-yl)thio)-1H-imidazo[4,5-b]pyrazin-2-yl)azepan-4-amine] | 500 to 3000 |
| CC(N)C1CN(c2nc3nc(Sc4cccnc4C(F)(F)F)cnc3[nH]2)CCO1 (stereo not shown) [Example 86, 1-(4-(5-((2-(trifluoromethyl)pyridin-3-yl)thio)-1H-imidazo[4,5-b]pyrazin-2-yl)morpholin-2-yl)ethan-1-amine] | 500 to 3000 |
| CC(C)(CNc1nc2nc(Sc3cccnc3C(F)(F)F)cnc2[nH]1)N1CCOCC1 [Example 87, N-(2-methyl-2-morpholinopropyl)-5-((2-(trifluoromethyl)pyridin-3-yl)thio)-1H-imidazo[4,5-b]pyrazin-2-amine] | > 3000 |
| FC(F)(F)c1ncccc1Sc1cnc2[nH]c(N3C[C@@H]4CC[C@H]3CN4)nc2n1 [Example 90, (1S,4S)-2-(5-((2-(trifluoromethyl)pyridin-3-yl)thio)-1H-imidazo[4,5-b]pyrazin-2-yl)-2,5-diazabicyclo[2.2.2]octane] | 500 to 3000 |
| CC1(N)CCN(c2nc3nc(Sc4nc5ccccc5c(=O)[nH]4)cnc3[nH]2)CC1 [Example 91, 2-((2-(4-amino-4-methylpiperidin-1-yl)-1H-imidazo[4,5-b]pyrazin-5-yl)thio)quinazolin-4(3H)-one] | 500 to 3000 |
| CC1(N)CCN(c2nc3nc(Sc4cccc5ccncc45)cnc3[nH]2)CC1 [Example 92, 1-(5-(isoquinolin-8-ylthio)-1H-imidazo[4,5-b]pyrazin-2-yl)-4-methylpiperidin-4-amine] | < 500 |
| CC1(N)CCN(c2nc3nc(Sc4cccc(S(F)(F)(F)(F)F)c4)cnc3[nH]2)CC1 [Example 93, 4-methyl-1-(5-((3-(pentafluoro-l6-sulfaneyl)phenyl)thio)-1H-imidazo[4,5-b]pyrazin-2-yl)piperidin-4-amine] | 500 to 3000 |
| CC1(N)CCN(c2nc3nc(Sc4cccc(C(=O)O)c4)cnc3[nH]2)CC1 [Example 94, 3-((2-(4-amino-4-methylpiperidin-1-yl)-1H-imidazo[4,5-b]pyrazin-5-yl)thio)benzoic acid] | < 500 |
| CC1(N)CCN(c2nc3nc(Sc4ccc(C(=O)O)cc4)cnc3[nH]2)CC1 [Example 95, 4-((2-(4-amino-4-methylpiperidin-1-yl)-1H-imidazo[4,5-b]pyrazin-5-yl)thio)benzoic acid] | < 500 |
| CC1(N)CCN(c2nc3nc(Sc4ccnc5c(C(F)(F)F)cccc45)cnc3[nH]2)CC1 [Example 97] | 500 to 3000 |
| CC1(N)CCN(c2nc3nc(Sc4ccccc4Cl)cnc3[nH]2)CC1 [Example 98, 1-(5-((2-chlorophenyl)thio)-1H-imidazo[4,5-b]pyrazin-2-yl)-4-methylpiperidin-4-amine] | < 500 |
| CC1(N)CCN(c2nc3nc(Sc4ccc(C(=O)O)cc4Cl)cnc3[nH]2)CC1 [Example 99, 4-((2-(4-amino-4-methylpiperidin-1-yl)-1H-imidazo[4,5-b]pyrazin-5-yl)thio)-3-chlorobenzoic acid] | < 500 |
| CC1(N)CCN(c2nc3nc(Sc4cccc5ncncc45)cnc3[nH]2)CC1 [Example 100, 4-methyl-1-(5-(quinazolin-5-ylthio)-1H-imidazo[4,5-b]pyrazin-2-yl)piperidin-4-amine] | 500 to 3000 |
| CC1(N)CCN(c2nc3nc(Sc4ncnc5ccccc45)cnc3[nH]2)CC1 [Example 101, 4-methyl-1-(5-(quinazolin-4-ylthio)-1H-imidazo[4,5-b]pyrazin-2-yl)piperidin-4-amine] | > 3000 |
| CC1(N)CCN(c2nc3nc(Sc4ccccc4-c4nccs4)cnc3[nH]2)CC1 [Example 102, 4-methyl-1-(5-((2-(thiazol-2-yl)phenyl)thio)-1H-imidazo[4,5-b]pyrazin-2-yl)piperidin-4-amine] | > 3000 |
| CC1(N)CCN(c2nc3nc(Sc4cccc(CC(=O)O)c4)cnc3[nH]2)CC1 [Example 103, 2-(3-((2-(4-amino-4-methylpiperidin-1-yl)-1H-imidazo[4,5-b]pyrazin-5-yl)thio)phenyl)acetic acid] | < 500 |
| CC1(N)CCN(c2nc3nc(Sc4ccnc5ccnn45)cnc3[nH]2)CC1 [Example 104, 4-methyl-1-(5-(pyrazolo[1,5-a]pyrimidin-7-ylthio)-1H-imidazo[4,5-b]pyrazin-2-yl)piperidin-4-amine] | > 3000 |
| CC1(N)CCN(c2nc3nc(Sc4ccnc5ncccc45)cnc3[nH]2)CC1 [Example 105, 1-(5-((1,8-naphthyridin-4-yl)thio)-1H-imidazo[4,5-b]pyrazin-2-yl)-4-methylpiperidin-4-amine] | 500 to 3000 |
